Patent US9029545B2, “Thienopyridine NOX2 inhibitors” (GlaxoSmithKline Intellectual Property Limited, priority 2009, dated 2015)
Counter-ions that a name gives are not always drawn.

The compounds below were run against T1, NOX2 in differentiated HL60 cells (Homo sapiens, UniProt P04839) (assay: HL60 cell-based assays (Assay 1 Oxyburst green BSA fluorescence, Assay 2 L-012 luminescence); result stated for at least one of them). Details: PMA-stimulated superoxide production in differentiated HL60 cells; at least one of Oxyburst and L012 assays; read-out: pIC50 in at least one of the HL60 assays (converted).
T1 construct: Differentiation of HL-60 cells to granulocytes increases NOX2 expression; endogenous in cells; host or cells: HL60 cells differentiated to neutrophil-like cells with 1.3% DMSO and stimulated with PMA
T1 sequence (P04839 1-570): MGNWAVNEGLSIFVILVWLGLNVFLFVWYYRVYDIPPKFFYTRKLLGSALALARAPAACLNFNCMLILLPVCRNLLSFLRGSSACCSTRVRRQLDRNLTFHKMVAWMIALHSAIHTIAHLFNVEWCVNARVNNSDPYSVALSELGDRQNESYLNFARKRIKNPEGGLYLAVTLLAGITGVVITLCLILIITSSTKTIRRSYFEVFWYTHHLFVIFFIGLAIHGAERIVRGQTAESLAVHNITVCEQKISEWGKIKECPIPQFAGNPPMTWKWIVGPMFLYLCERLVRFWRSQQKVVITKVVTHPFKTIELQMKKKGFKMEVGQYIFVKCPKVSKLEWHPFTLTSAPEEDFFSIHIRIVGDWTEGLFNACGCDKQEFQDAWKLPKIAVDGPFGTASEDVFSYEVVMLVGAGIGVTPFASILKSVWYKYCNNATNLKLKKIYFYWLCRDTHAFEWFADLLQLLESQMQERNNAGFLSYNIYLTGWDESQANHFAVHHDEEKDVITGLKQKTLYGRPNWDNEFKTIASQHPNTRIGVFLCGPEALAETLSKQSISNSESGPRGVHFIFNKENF
T1 sequence (P13498 1-195 partner): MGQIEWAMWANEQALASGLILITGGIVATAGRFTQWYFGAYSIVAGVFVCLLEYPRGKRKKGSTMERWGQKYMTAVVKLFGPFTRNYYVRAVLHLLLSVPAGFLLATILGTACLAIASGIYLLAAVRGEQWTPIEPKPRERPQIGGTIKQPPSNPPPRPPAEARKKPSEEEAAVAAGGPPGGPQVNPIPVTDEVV
Description: In the cell-based assay, superoxide production by NOX2 was measured in differentiated HL60 cells, a human myelomonocytic leukemia cell line, using either Oxyburst (Assay1) or L012 (Assay2). Differentiation of HL-60 cells to granulocytes increases NOX2 expression. The phorbol 12-myristate 13-acetate (PMA) was used to stimulate the production of superoxide in HL60 cells by activating protein kinase C, which then activated the NADPH oxidase (NOX) enzymes. Inhibition of NOX2 enzyme was detected by the reversal of fluorescence signal (Assay1) or luminescence signal (Assay2). The control inhibitor used was diphenyleneiodonium chloride (DPI), a […] inhibitor capable of non-selectively inhibiting superoxide produced by NOX enzymes.
Assay 1: in this high-throughput screening assay, oxyburst green bovine serum albumin (BSA) was used to detect superoxide production in HL60 cells. Oxidation of Oxyburst green BSA by hydrogen peroxide as a result of the activation of NOX2 by PMA. Oxyburst green BSA fluorescence was measured at excitation 485 nm and emission 530 nm.
Assay 2: in this assay, a chemiluminescence probe, L-012 was used to detect superoxide production in HL60 cells. L-012 reacted with various types of reactive oxygen species generated by PMA-activated HL60 cells. Luminescence was measured using Tecan Infinite 500.
The HL60 cells were differentiated into neutrophil-like cells by adding 1.3% DMSO in the media for 3-7 days (Hua, J et al. (2000) Journal of Leukocyte Biology. 68:216-224). Iscove's Modified Dulbecco's Media (IMDM) with L-Glutamine and 25 mM HEPES buffer, Fetal Bovine Serum (FBS), Penicillin/Streptomycin, Oxyburst Green BSA, PBS, and HBSS buffer with Calcium Chloride and Magnesium Chloride were purchased from Invitrogen (Catalog #s: 12440-061, 10500-064, 15140-163, O-13291, 14190-250, and 14025-134 respectively). Phorbol 12-myristate 13-acetate (PMA), glucose, and CHAPS were purchased from Sigma (Catalog #s: 79346, D-9434, and C5070 respectively). Diphenyleneiodonium chloride (DPI) was purchased from Toronto Research Chemicals (Catalog #: D491500). L-012 was purchased from Wako Chemical (Catalog #: 120-04891). Dimethyl sulfoxide (DMSO) was purchased EMD Chemicals (VWR Catalog #: MX1456-1). Multidrop combi was purchased from Thermo Electron Corporation (Waltham, Mass., USA). Hummingbird nanoliter liquid dispenser was purchased from Genomics Solution (Ann Arbor, Mich., USA). 384 well low-volume plates and polypropylene 384 well clear plates were purchased from Greiner (Catalog #: 784076 and 781280 respectively). 96 well plate and 384 well plate black assay plates were purchased from Greiner (Catalog #: 655094 and 781098). 96 well plate for compound serial dilution was purchased from Corning (Catalog #: 9017). Acquest or Analyst fluorescence plate reader was purchased from LJL Biosystems/Molecular Devices (California, USA). Tecan Infinite 500 was purchased from Tecan (Switzerland).
Media for HL60 cells were kept at 4° C. for storage and were warmed to 37° C. in a water bath before use. The media components were IMDM media with 20% FBS and 1% Penicillin/Streptomycin.
Buffer to be used for compound addition and compound dilution consisted of HBSS buffer with 0.1% glucose.
Buffer to be used for cells consisted of HBSS buffer with 0.1% glucose and 0.01% CHAPS.
HL60 cells were thawed and resuspended in Cells media. The cells were centrifuged at 1200 rpm for 8 minutes. Media was aspirated and the cells were resuspended in Cells buffer. The cells were counted and resuspended to 1×10^6 cells/mL.
Full inhibition controls were dispensed using 100 nL/well of 1 mM DPI in DMSO to column 18 of a 384 well plate. Compounds were dispensed using 100 nL/well. Full activity controls were dispensed using 100 nL/well of 4 uM PMA in DMSO. Oxyburst Green BSA was added to cell solution at 10 ug/mL. Using the Multidrop, 10 uL cell solution was added to the entire assay plate. The assay plate was incubated at room temperature for 100 minutes. […]

| IC50 [µM] | Structure (SMILES) |
| --- | --- |
| < 100 | Cc1cc(NS(=O)(=O)c2cccc(Cl)c2)c2c(C)c(-c3cn[nH]c3)sc2n1 [Example 76, 3-Chloro-N-[3,6-dimethyl-2-(1H-pyrazol-4-yl)thieno[2,3-b]pyridin-4-yl]benzenesulfonamide] |
| < 100 | Cc1cc(NS(=O)(=O)c2cccc(Cl)c2)c2c(Br)c(-c3cn[nH]c3)sc2n1 [Example 100, N-[3-Bromo-6-methyl-2-(1H-pyrazol-4-yl)thieno[2,3-b]pyridin-4-yl]-3-chlorobenzenesulfonamide] |
| < 100 | Cc1cc(NS(=O)(=O)c2cccc(Cl)c2)c2c(-c3cn[nH]c3)c(C)sc2n1 [Example 63, 3-Chloro-N-[2,6-dimethyl-3-(1H-pyrazol-4-yl)thieno[2,3-b]pyridin-4-yl]benzenesulfonamide] |
| < 100 | Cc1cccc(-c2c(C)sc3nc(C)cc(NS(=O)(=O)c4cccc(Cl)c4)c23)c1 [Example 69, 3-Chloro-N-[2,6-dimethyl-3-(3-methylphenyl)thieno[2,3-b]pyridin-4-yl]benzenesulfonamide] |
| < 100 | COc1cccc(-c2c(C)sc3nc(C)cc(NS(=O)(=O)c4cccc(Cl)c4)c23)c1 [Example 1, 3-Chloro-N-{2,6-dimethyl-3-[3-(methyloxy)phenyl]thieno[2,3-b]pyridin-4-yl}-benzenesulfonamide] |
| < 100 | COc1ccc(-c2c(C)sc3nc(C)cc(NS(=O)(=O)c4cccc(Cl)c4)c23)cc1 [Example 18, 3-Chloro-N-{2,6-dimethyl-3-[4-(methyloxy)phenyl]thieno[2,3-b]pyridin-4-yl}-benzenesulfonamide] |
| < 100 | COc1cccc(-c2c(-c3cn[nH]c3)sc3nc(C)cc(NS(=O)(=O)c4cccc(Cl)c4)c23)c1 [Example 58, 3-Chloro-N-[6-methyl-3-[3-(methyloxy)phenyl]-2-(1H-pyrazol-4-yl)thieno[2,3-b]pyridin-4-yl]benzenesulfonamide] |

The next lines start with the compound.

| Structure (SMILES) | IC50 [µM] |
| --- | --- |
| COc1cccc(-c2c(C(C)C)sc3nc(C)cc(NS(=O)(=O)c4cccc(Cl)c4)c23)c1 [Example 45, 3-Chloro-N-{6-methyl-2-(1-methylethyl)-3-[3-(methyloxy)phenyl]thieno[2,3-b]pyridin-4-yl}-benzenesulfonamide trifluoroacetate] | < 100 |
| COC(=O)c1sc2nc(C)cc(NS(=O)(=O)c3cccc(Cl)c3)c2c1-c1cccc(OC)c1 [Example 36, Methyl 4-{[(3-chlorophenyl)sulfonyl]amino}-6-methyl-3-[3-(methyloxy)phenyl]thieno[2,3-b]pyridine-2-carboxylate] | < 100 |
| COc1cccc(-c2c(C)sc3nc(C)cc(NS(=O)(=O)c4cncc(Br)c4)c23)c1 [Example 52, 5-Bromo-N-{2,6-dimethyl-3-[3-(methyloxy)phenyl]thieno[2,3-b]pyridin-4-yl}-3-pyridinesulfonamide trifluoroacetate] | < 100 |
| COc1cccc(-c2c(-c3ccco3)sc3nc(C)cc(NS(=O)(=O)c4cccc(Cl)c4)c23)c1 [Example 42, 3-Chloro-N-{2-(2-furanyl)-6-methyl-3-[3-(methyloxy)phenyl]thieno[2,3-b]pyridin-4-yl}-benzenesulfonamide] | < 100 |
| Cc1cc(NS(=O)(=O)c2cccc(Cl)c2)c2c(-c3cccc(CNC(=O)OC(C)(C)C)c3)c(C)sc2n1 [Example 70, 1,1-Dimethylethyl {[3-(4-{[(3-chlorophenyl)sulfonyl]amino}-2,6-dimethylthieno[2,3-b]pyridin-3-yl)phenyl]methyl}carbamate] | < 100 |
| COc1cccc(-c2c(C)sc3nc(C)cc(NS(=O)(=O)C4CCCCC4)c23)c1 [Example 8, N-{2,6-Dimethyl-3-[3-(methyloxy)phenyl]thieno[2,3-b]pyridin-4-yl}-cyclohexanesulfonamide] | < 100 |
| COc1cccc(-c2c(C)sc3nc(C)cc(NS(=O)(=O)C4(Cl)CCN(C(=O)OCc5ccccc5)CC4)c23)c1 [Example 10, Phenylmethyl 4-chloro-4-[({2,6-dimethyl-3-[3-(methyloxy)phenyl]thieno[2,3-b]pyridin-4-yl}amino)sulfonyl]-1-piperidinecarboxylate] | < 100 |
| COc1cccc(-c2c(-c3ccoc3)sc3nc(C)cc(NS(=O)(=O)c4cccc(Cl)c4)c23)c1 [Example 57, 3-Chloro-N-{2-(3-furanyl)-6-methyl-3-[3-(methyloxy)phenyl]thieno[2,3-b]pyridin-4-yl}-benzenesulfonamide] | < 100 |
| COc1ccc(-c2csc3nc(C)cc(NS(=O)(=O)c4cccc(Cl)c4)c23)cc1OC [Example 47, N-{3-[3,4-Bis(methyloxy)phenyl]-6-methylthieno[2,3-b]pyridin-4-yl}-3-chlorobenzenesulfonamide trifluoroacetate] | < 100 |
| COc1cccc(-c2csc3nccc(NS(=O)(=O)c4cccc(Cl)c4)c23)c1 [Example 62, 3-Chloro-N-{3-[3-(methyloxy)phenyl]thieno[2,3-b]pyridin-4-yl}benzenesulfonamide] | < 100 |
| COc1cccc(-c2c(C)sc3nc(Cl)cc(NS(=O)(=O)c4cccc(Cl)c4)c23)c1 [Example 117, 3-Chloro-N-{6-chloro-2-methyl-3-[3-(methyloxy)phenyl]thieno[2,3-b]pyridin-4-yl}benzenesulfonamide] | < 100 |
| COc1cccc(-c2c(-c3cccs3)sc3nc(C)cc(NS(=O)(=O)c4cccc(Cl)c4)c23)c1 [Example 44, 3-Chloro-N-[6-methyl-3-[3-(methyloxy)phenyl]-2-(2-thienyl)thieno[2,3-b]pyridin-4-yl]-benzenesulfonamide] | < 100 |
| COc1cccc(-c2c(-c3cccnc3)sc3nc(C)cc(NS(=O)(=O)c4cccc(Cl)c4)c23)c1 [Example 41, 3-Chloro-N-[6-methyl-3-[3-(methyloxy)phenyl]-2-(3-pyridinyl)thieno[2,3-b]pyridin-4-yl]-benzenesulfonamide] | < 100 |
| CCc1sc2nc(C)cc(NS(=O)(=O)c3cccc(Cl)c3)c2c1-c1cccc(N(C)C)c1 [Example 48, 3-Chloro-N-{3-[3-(dimethylamino)phenyl]-2-ethyl-6-methylthieno[2,3-b]pyridin-4-yl}benzenesulfonamide trifluoroacetate] | < 100 |
